Assays:
Assay in all cases: relative viability (nuclei count vs DMSO), 5 days (fraction); higher = more cells survive
CAP-232 + Tozasertib = compound: C[C@H]([C@@H](C(=O)N)NC(=O)[C@@H]1CSSC[C@@H](C(=O)N[C@H](C(=O)N[C@@H](C(=O)N[C@H](C(=O)N1)CCCCN)CC2=CNC3=CC=CC=C32)CC4=CC=C(C=C4)O)NC(=O)[C@@H](CC5=CC=CC=C5)N)O [CAP-232] + Cc1cc(Nc2cc(N3CCN(C)CC3)nc(Sc3ccc(NC(=O)C4CC4)cc3)n2)n[nH]1 [Tozasertib] (partner 0.1 µM)
How it was run: (§1)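 Medians of duplicate plates are given as relative viability. That measure is the nuclei count in treated wells divided by the count in vehicle wells. Counts were taken on 4× images of lung cancer cell lines in 1536-well plates, 5 days after pin-tool dosing the day after seeding with one drug alone or a fixed anchor-drug dose plus five library-drug doses (not always all listed) in √10 steps.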

CAP-232 + Pictilisib = compound: C[C@H]([C@@H](C(=O)N)NC(=O)[C@@H]1CSSC[C@@H](C(=O)N[C@H](C(=O)N[C@@H](C(=O)N[C@H](C(=O)N1)CCCCN)CC2=CNC3=CC=CC=C32)CC4=CC=C(C=C4)O)NC(=O)[C@@H](CC5=CC=CC=C5)N)O [CAP-232] + CS(=O)(=O)N1CCN(Cc2cc3nc(-c4cccc5[nH]ncc45)nc(N4CCOCC4)c3s2)CC1 [Pictilisib] (partner 1 µM)
How it was run: as §1

CAP-232 + Vorinostat = compound: C[C@H]([C@@H](C(=O)N)NC(=O)[C@@H]1CSSC[C@@H](C(=O)N[C@H](C(=O)N[C@@H](C(=O)N[C@H](C(=O)N1)CCCCN)CC2=CNC3=CC=CC=C32)CC4=CC=C(C=C4)O)NC(=O)[C@@H](CC5=CC=CC=C5)N)O [CAP-232] + O=C(CCCCCCC(=O)Nc1ccccc1)NO [Vorinostat] (partner 1 µM)
How it was run: as §1

CAP-232 + Phenformin = compound: C[C@H]([C@@H](C(=O)N)NC(=O)[C@@H]1CSSC[C@@H](C(=O)N[C@H](C(=O)N[C@@H](C(=O)N[C@H](C(=O)N1)CCCCN)CC2=CNC3=CC=CC=C32)CC4=CC=C(C=C4)O)NC(=O)[C@@H](CC5=CC=CC=C5)N)O [CAP-232] + N=C(N)NC(=N)NCCc1ccccc1 [Phenformin] (partner 250 µM)
How it was run: as §1

CAP-232 + Alpelisib = compound: C[C@H]([C@@H](C(=O)N)NC(=O)[C@@H]1CSSC[C@@H](C(=O)N[C@H](C(=O)N[C@@H](C(=O)N[C@H](C(=O)N1)CCCCN)CC2=CNC3=CC=CC=C32)CC4=CC=C(C=C4)O)NC(=O)[C@@H](CC5=CC=CC=C5)N)O [CAP-232] + Cc1nc(NC(=O)N2CCC[C@H]2C(N)=O)sc1-c1ccnc(C(C)(C)C(F)(F)F)c1 [Alpelisib] (partner 2 µM)
How it was run: as §1

Cell Line	relative viability (CAP-232 + Tozasertib; first compound 0.4 µM)	relative viability (CAP-232 + Tozasertib; first compound 1.265 µM)	relative viability (CAP-232 + Tozasertib; first compound 4 µM)	relative viability (CAP-232 + Tozasertib; first compound 12.65 µM)	relative viability (CAP-232 + Pictilisib; first compound 0.4 µM)	relative viability (CAP-232 + Pictilisib; first compound 1.265 µM)	relative viability (CAP-232 + Pictilisib; first compound 4 µM)	relative viability (CAP-232 + Pictilisib; first compound 12.65 µM)	relative viability (CAP-232 + Vorinostat; first compound 0.4 µM)	relative viability (CAP-232 + Vorinostat; first compound 1.265 µM)	relative viability (CAP-232 + Vorinostat; first compound 4 µM)	relative viability (CAP-232 + Vorinostat; first compound 12.65 µM)	relative viability (CAP-232 + Phenformin; first compound 0.4 µM)	relative viability (CAP-232 + Phenformin; first compound 1.265 µM)	relative viability (CAP-232 + Phenformin; first compound 4 µM)	relative viability (CAP-232 + Phenformin; first compound 12.65 µM)	relative viability (CAP-232 + Alpelisib; first compound 0.4 µM)	relative viability (CAP-232 + Alpelisib; first compound 1.265 µM)	relative viability (CAP-232 + Alpelisib; first compound 4 µM)	relative viability (CAP-232 + Alpelisib; first compound 12.65 µM)
201T	1.04	0.91	0.979	0.926	0.765	0.657	0.678	0.713	1.05	0.98	1	0.995	0.487	0.419	0.416	0.443	1.05	0.975	0.992	1.04
A549	–	–	–	–	0.591	0.472	0.563	0.203	–	–	–	–	0.164	0.183	0.146	0.113	0.659	0.653	0.734	0.348
A-427	0.164	0.186	0.149	0.207	0.508	0.654	0.842	0.853	0.937	0.882	0.879	0.893	0.249	0.332	0.259	0.312	1.08	1.04	1.06	1.08
ABC-1	0.155	0.143	0.179	0.148	0.616	0.878	0.745	0.411	1.48	–	1.13	0.952	0.249	0.243	0.215	0.186	1.05	1.15	1.24	0.504
BEN	0.413	0.547	0.387	0.635	0.569	0.55	0.601	0.498	0.547	0.57	0.565	0.479	0.246	0.231	0.231	0.221	1.03	1.01	1.06	0.858
CAL-12T	0.434	0.264	0.262	0.358	0.383	0.381	0.435	0.322	0.805	0.752	0.832	0.431	0.491	0.506	0.593	0.355	1.11	1.24	1.42	0.726
COR-L23	0.176	0.194	0.187	0.193	0.653	0.734	0.784	0.579	0.518	0.474	0.488	0.381	0.497	0.47	0.468	0.372	0.725	0.754	0.701	0.616
COR-L 105	0.346	0.387	0.379	0.323	0.346	0.43	0.37	0.31	0.871	0.719	1	0.637	0.423	0.429	0.501	0.287	1.09	0.917	1.16	0.594
ChaGo-K-1	0.218	0.237	0.245	0.213	1	0.51	0.703	0.256	0.835	0.724	0.709	0.71	0.487	0.466	0.601	0.505	–	–	–	–
EKVX	0.352	0.376	0.422	0.31	0.395	0.458	0.421	0.372	1.01	0.74	0.818	0.749	0.232	0.218	0.23	0.233	0.806	0.969	0.833	0.715
EMC-BAC-2	0.304	0.276	0.289	0.247	0.511	0.51	0.534	0.48	0.818	0.395	0.483	0.383	0.541	0.498	0.526	0.465	0.78	0.718	0.743	0.623
EPLC-272H	0.25	0.182	0.288	0.389	0.284	0.281	0.325	0.287	–	0.615	0.545	0.158	0.276	0.285	0.319	0.322	0.895	0.959	0.988	0.941
H3255	0.612	0.733	0.791	0.893	0.443	0.491	0.553	0.366	0.923	–	0.7	0.726	0.746	0.309	0.341	0.504	0.759	0.741	0.633	0.503
HARA	0.0986	0.0955	0.144	0.0866	0.401	0.432	0.358	0.26	0.497	0.487	0.598	0.432	0.538	0.5	0.463	0.515	0.791	0.847	0.876	0.58
HCC-15	0.378	0.329	0.382	0.435	0.778	0.764	0.806	0.54	0.825	0.858	0.959	0.61	0.477	0.465	0.481	0.236	0.935	0.878	0.86	0.824
HCC-44	0.919	0.95	1.18	1.09	0.675	0.616	0.428	0.594	1.08	1.08	1.15	1.13	0.392	0.128	0.194	0.171	0.898	0.768	0.843	0.75

Cell Line	relative viability (CAP-232 + Tozasertib; first compound 0.4 µM)	relative viability (CAP-232 + Tozasertib; first compound 1.265 µM)	relative viability (CAP-232 + Tozasertib; first compound 4 µM)	relative viability (CAP-232 + Tozasertib; first compound 12.65 µM)	relative viability (CAP-232 + Pictilisib; first compound 0.4 µM)	relative viability (CAP-232 + Pictilisib; first compound 1.265 µM)	relative viability (CAP-232 + Pictilisib; first compound 4 µM)	relative viability (CAP-232 + Pictilisib; first compound 12.65 µM)	relative viability (CAP-232 + Vorinostat; first compound 0.4 µM)	relative viability (CAP-232 + Vorinostat; first compound 1.265 µM)	relative viability (CAP-232 + Vorinostat; first compound 4 µM)	relative viability (CAP-232 + Vorinostat; first compound 12.65 µM)	relative viability (CAP-232 + Phenformin; first compound 0.4 µM)	relative viability (CAP-232 + Phenformin; first compound 1.265 µM)	relative viability (CAP-232 + Phenformin; first compound 4 µM)	relative viability (CAP-232 + Phenformin; first compound 12.65 µM)	relative viability (CAP-232 + Alpelisib; first compound 0.4 µM)	relative viability (CAP-232 + Alpelisib; first compound 1.265 µM)	relative viability (CAP-232 + Alpelisib; first compound 4 µM)	relative viability (CAP-232 + Alpelisib; first compound 12.65 µM)
HCC-78	0.257	0.405	0.493	0.492	0.206	0.178	0.21	0.195	0.47	0.489	0.388	0.441	0.859	0.806	0.746	0.54	0.317	0.371	0.312	0.819
HCC-366	0.132	0.106	0.108	0.078	0.133	0.154	0.148	0.189	0.32	0.345	0.418	0.323	0.6	0.588	0.66	0.631	0.488	0.337	0.521	0.243
HCC-827	0.525	0.41	0.417	0.484	0.842	1.1	0.896	1.05	0.888	0.832	0.883	0.891	0.409	0.384	0.387	0.418	0.913	0.925	0.967	0.919
HOP-62	0.347	0.388	0.387	0.406	0.575	–	0.741	0.84	0.589	0.484	0.676	0.543	0.71	0.675	0.72	0.55	0.967	–	1.17	1.29
IA-LM	–	–	–	–	0.359	0.365	0.39	0.146	0.821	1.01	0.939	0.822	–	–	–	–	0.881	0.742	0.629	0.296
LC-2-ad	0.518	0.478	0.439	0.267	0.404	0.409	0.63	0.458	0.734	0.753	0.723	0.698	0.707	0.514	0.603	0.257	0.931	0.823	0.804	0.824
LCLC-97TM1	0.22	0.189	0.204	0.194	0.217	0.193	0.232	0.193	0.876	0.764	1.08	0.995	0.462	0.387	0.463	0.422	0.252	0.228	0.285	0.244
LCLC-103H	0.544	0.47	0.479	0.572	0.707	0.564	0.536	0.595	0.875	0.729	0.827	0.825	0.368	0.342	0.315	0.325	0.948	0.921	0.972	0.898
LK-2	0.147	0.199	0.163	0.147	0.42	0.608	0.494	0.61	0.277	0.249	0.275	0.298	0.47	0.302	0.389	0.415	1.02	1.15	1.2	1.75
NCI-H522	0.555	0.58	0.503	0.544	–	–	–	–	0.971	0.9	0.93	0.867	0.7	0.72	0.592	0.69	–	–	–	–
NCI-H1563	–	–	–	–	0.677	0.626	0.689	0.486	–	–	–	–	0.698	0.643	0.598	0.37	0.92	0.955	0.908	0.626
NCI-H1650	0.427	0.38	0.391	0.213	0.636	0.578	0.535	0.154	0.645	0.514	0.622	0.183	0.479	0.335	0.424	0.153	–	–	–	–
NCI-H1703	–	–	–	–	0.245	0.224	0.269	0.261	–	–	–	–	–	–	–	–	0.34	0.378	0.344	0.351
NCI-H1792	–	–	–	–	0.26	0.323	0.3	0.204	–	–	–	–	0.129	0.193	0.247	0.188	0.825	0.823	0.819	0.399
NCI-H2342	0.479	0.459	0.436	0.437	–	–	–	–	0.688	0.647	0.623	0.742	0.572	0.562	0.629	0.551	–	–	–	–
SW 900	0.658	0.593	0.583	0.582	–	–	–	–	0.727	0.453	0.432	0.429	0.644	0.527	0.722	0.457	–	–	–	–

From the supplement of paper PMC10307832
